The values below come from patent publication US6984719B1, “Peptide antagonists of prostaglandin F2α receptor” (Hospital Sainte-Justine, priority 1998, dated 2006).

Ends that are not written are not given here.

The target in one experiment is T1, human FP receptor (Homo sapiens, UniProt P43088).
T1 construct: expressed in transfected cells
Put plainly: PGF2α-induced phosphoinositide hydrolysis (inositol phosphate synthesis) in HEK293 cells expressing FP receptor. Format: cell-based. As to conditions: 1 μM PGF2α. The protocol:
Both PCP-8 and -10 were tested in HEK293 cells expressing the human FP receptor. For this purpose, HEK 293 cells stably expressing human FP receptor were plated in 12-well plates in DMEM medium containing 10% fetal bovine serum, penicillin (10 U/ml) and streptomycin (10 μg/ml) and cultured in a humidified atmosphere containing 5% CO2 at 37° C. After the wells were 80% confluent, the cells were labeled with 2 μCi/ml of [^3H]-myo inositol overnight. Next day, the cells were washed once with PBS, and incubated in 0.5 ml of Kreb's buffer containing 10 mM LiCl and indicated concentrations of PCP peptides for 30 min. PGF2α at 1 μM was added to the cells and the incubation was carried out for an additional 30 min. The cells were solubilized with 0.1 N NaOH for 10 min and neutralized with 0.1 N formic acid. The lysates were collected and 1 ml each of methanol and chloroform were sequentially added and vortexed briefly. After centrifugation to separate the phases, inositol phosphates were separated by ion exchange chromatography as described below (Berridge, M. J. et al., 1983, Biochem. J. 212:473–482).
Briefly, the medium was discarded and the IP3 synthesis was stopped by adding 0.6 ml ice-cold methanol. The cells were scraped and collected into polypropylene tubes. Distilled water (0.5 ml) and chloroform (0.6 ml) were added and vigorously vortexed for 2 min. The phases were separated by centrifugation at 6000×g for 10 min. The aqueous phase was applied to AG-1X-8™ (Formate form) anion exchange columns (1 ml bed volume) and free inositol was eluted with 10 ml of water, followed by 60 mM ammonium formate in 0.1 M formic acid. Then, the inositol phosphates were eluted with 5 ml of 1.2 M ammonium formate in 0.1 M formic acid. After adding 3 volumes of scintillation cocktail (Optiphase-HiSafe III), the eluates were counted by scintillation spectrophotometry.
Data are expressed as fold stimulation of inositol phosphate synthesis by 1 μM PGF2α compared to the unstimulated controls. […] The half maximal inhibitory concentrations for both PCP-8 and -10 were slightly less than 100 μM.

For experiment [1], the target named is T2, FP receptor (Sus scrofa, UniProt C6GAG8).
T2 construct: from tissue; host or cells: eyecup / retinal microvessels of newborn pigs pretreated with ibuprofen
Put plainly: Porcine eyecup model of ex vivo vasomotricity assay, PGF2α-induced constriction of retinal microvessels. Set-up: species or system pig. The source says: In order to see if the peptides could inhibit FP function using an ex vivo model, we chose porcine eyecup model, an ex vivo assay of vascular constriction in porcine retinas which we previously described and validated (Li et al., 1996 J. Pharmacol. Expt. Therapeut. 278: 370–377; Li et al., 1997 Am. J. Physiol. 273: R1283–90; Abran et al., 1997 Am. J. Physiol. 272: R995–1001). Since FP receptor densities in newborn vasculature are minimal due to down regulation by high levels of circulating prostaglandins in the perinatal period, the newborn pigs were treated with a prostaglandin synthetase blocker, ibuprofen (30 mg/Kg of bodyweight/8 h for 24 h) to increase the density of the receptors as well as their vasomotor effects. By inhibiting circulating prostaglandins, we were able to show potent inhibition of FP receptor-mediated second messenger synthesis as well as FP-mediated vascular constriction in this eyecup model.
(§1) To prepare eyecups, a circular incision was made 3–4 mm posterior to ora serrata to remove the […] segment and vitreous body with minimal handling of the retina. The remaining eyecup was fixed with pins to a wax base in a 20 ml tissue bath containing 20 ml of Kreb's buffer (pH 7.35–7.45), protease inhibitors, leupetin and aprotinin (10 μg/ml each), and equilibrated with 21% oxygen and 5% carbon dioxide at 37° C. The preparations were allowed to stabilize for 30 min. Peptides at 100 μM were added and incubation was continued for 30 min before the addition of PGF2α.
(§2) Cumulative concentration-responses of PGF2α, and TxA2 mimetic, U46619, (10^−10 to 10^−5 M) curves were constructed separately. To assess the reversibility of the antagonists, the eyecups were thoroughly washed (which would wash away the peptide) with incubation medium and concentration response curves for PGF2α were determined. The outer vessel diameter was recorded with a video camera mounted on a dissecting microscope (Zeiss M 400™) and the responses were quantified by a digital image analyzer (Sigma Scan Software, Jandel Scientific, Corte Madera, Calif.). Vascular diameter was recorded before and 10 min following the topical application of the agent.
^1Percent vasomotor response in the presence of 100 μM peptide is calculated as percent change in average vascular diameter produced by 10^−7 M PGF2α to the eyecup in the presence of the peptide compared to maximal constriction observed in the absence of the peptide.
^2Percent inhibition produced by each peptide is calculated as (100-percent vasomotor response).
Small letters indicate L-amino acids and capital letters indicate D-amino acids. I=isoleucine; L=leucine; G=glycine; H=histidine; R=Arginine; D=Aspartic acid; Y=Tyrosine; K=Lysine; A=Alanine; W=Tryptophan; E=Glutamic acid; F=Phenyl alanine; Q=Glutamine; N=Aspargine; P=Proline; S=Serine; X=Cyclohexyl alanine. Peptides were dissolved in DMSO freshly just before the experiment as 10 mM stocks and added to the eye cups 30 min before the addition of 10^−7 M PGF2α.
These peptides incorporate L- to D-amino acid changes, deletions, subtle variations in aromaticity, hydrogen bond donor status as opposed to ionic interactions and hydrophobicity.

The subject of a further experiment is TP receptor. Put plainly: Porcine eyecup model of ex vivo vasomotricity assay, constriction by TxA2 mimetic U46619. As to conditions: peptide 100 μM; 1 μM U46619 / dose response. Set-up: species or system pig. The protocol:
as §1, §2
The peptide PCP-10 had no effect on the basal tone (diameter of the microvessel) of the vessel (FIG. 2A; left panels). […]

The test system of experiment [2] is FP receptor. Description: Porcine uterine strip ex vivo contraction assay (basal and PGF2α-induced). Set-up: species or system pig. As to conditions: 100 μM peptide. The procedure: In ex vivo experiments using porcine uterine strips, the peptides were able to prevent both basal and PGF2α-induced contraction.
Uterine tissues from non-pregnant adult pigs were obtained from a local slaughter house and transported to the laboratory on ice. Uterine myometrial strips of approximately 1 cm in length were set up in organ baths containing Kreb's buffer equilibrated with 21% oxygen at 37° C. as we have described (Potvin, W. et al., 1990, Br. J. Pharmacol. 100:341–347; Varma, D. R. and Chemtob, S., 1993, J. Pharmacol. Expt. Ther. 265:1096–1104). Contractions were recorded by force transducers on Grass-polygraph. Strips were incubated with or without 100 μM peptides for 30 min before adding PGF2α in step-wise increments (10^−9 to 10^−6 M). Data were expressed as percentage increase over the basal level of average tension (g).
A graph of spontaneous uterine contractions (known to be dependent upon prostanoids, mainly PGF2α) in the absence and the presence of 100 μM PCP-8 are shown in FIG. 3A.

T2 sequence (C6GAG8 1-362): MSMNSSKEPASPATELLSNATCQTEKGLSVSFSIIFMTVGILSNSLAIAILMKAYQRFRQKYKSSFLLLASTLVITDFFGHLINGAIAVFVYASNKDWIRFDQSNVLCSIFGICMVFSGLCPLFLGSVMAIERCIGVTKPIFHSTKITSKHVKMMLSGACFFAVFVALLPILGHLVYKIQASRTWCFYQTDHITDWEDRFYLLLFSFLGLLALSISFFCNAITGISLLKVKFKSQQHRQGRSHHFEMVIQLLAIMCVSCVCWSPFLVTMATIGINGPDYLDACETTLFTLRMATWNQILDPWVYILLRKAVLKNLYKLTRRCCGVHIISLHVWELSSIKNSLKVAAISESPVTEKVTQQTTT
T1 sequence (P43088 whole entry): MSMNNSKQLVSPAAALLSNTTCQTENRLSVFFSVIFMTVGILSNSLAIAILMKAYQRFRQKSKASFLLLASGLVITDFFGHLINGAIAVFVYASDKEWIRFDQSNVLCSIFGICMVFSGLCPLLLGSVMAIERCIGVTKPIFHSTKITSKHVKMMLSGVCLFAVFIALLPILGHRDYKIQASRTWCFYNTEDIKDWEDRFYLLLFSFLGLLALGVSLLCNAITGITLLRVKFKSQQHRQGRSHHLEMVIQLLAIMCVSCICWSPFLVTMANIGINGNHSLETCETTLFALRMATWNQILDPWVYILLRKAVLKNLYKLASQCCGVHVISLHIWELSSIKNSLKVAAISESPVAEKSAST

Take ILGHRDYK-OH [PCP-8, ilghrdyk]: the IC50 at human FP receptor (HEK293 cells stably expressing human FP receptor, read-out: half maximal inhibitory concentration, inositol phosphate synthesis) was less than 100 µM. Also, the “inhibition of inositol phosphate synthesis initiated by PGF2α” value on human FP receptor (peptide at 100 μM) was “potently inhibited”. Also, on FP receptor [1] (100 μM peptide, 10^−7 M PGF2α, calculated as 100-percent vasomotor response, read-out: % inhibition of maximal response), the Emax is 50%. In addition, the “effect on vasomotor responses in PGF2α dose response” value at FP receptor [1] (peptide 100 μM, even at concentrations exceeding 1 μM of PGF2α) is given as “abrogated the vasomotor responses”. Besides, the “effect on vasoconstriction by TxA2 mimetic U46619” value in the experiment with TP receptor is “no effect”. Besides, the “reduction in uterine contraction” value with FP receptor [2] (all concentrations of PGF2α tested (10^−9 to 10^−6 M)) was “More than 60%”. Also, the “effect on spontaneous (basal) uterine contraction” value in the experiment on FP receptor [2] (porcine uterine strips) was “reduced the force of basal contraction”.
